# The Kinase Knowledgebase extract (Sharma et al. 2016)
# Target: MAPK14 (UniProt Q16539)
# Assay: Inhibition of MAPK14 Kinase Activity
# MAPK14, sequence (Q16539 whole entry, looked up): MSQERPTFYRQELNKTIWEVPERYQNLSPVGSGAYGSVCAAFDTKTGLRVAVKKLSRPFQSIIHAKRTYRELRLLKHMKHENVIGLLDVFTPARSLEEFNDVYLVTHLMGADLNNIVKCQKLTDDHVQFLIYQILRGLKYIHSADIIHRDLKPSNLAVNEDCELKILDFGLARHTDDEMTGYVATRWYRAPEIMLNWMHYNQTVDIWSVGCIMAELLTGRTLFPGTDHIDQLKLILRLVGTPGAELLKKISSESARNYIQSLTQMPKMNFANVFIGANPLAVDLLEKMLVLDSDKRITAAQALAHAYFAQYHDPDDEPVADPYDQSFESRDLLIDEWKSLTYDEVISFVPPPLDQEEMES
row,IC50 [µM],Structure (SMILES)
1,< 10,CCCC(O)C(C)NC(=O)c1ccc(-c2cc(C(=O)NC3CC3)cc(F)c2C)nc1 (stereo not given)
2,< 10,Cc1c(F)cc(C(=O)NC2CC2)cc1-c1ccc(C(=O)NCc2ccc(Cl)cc2)cn1
3,< 10,Cc1c(F)cc(C(=O)NC2CC2)cc1-c1ccc(C(=O)N(C)C(C)C)cn1
4,< 10,Cc1c(F)cc(C(=O)NC2CC2)cc1-c1ccc(C(=O)NCCC(F)(F)F)cn1
5,< 10,Cc1c(F)cc(C(=O)NC2CC2)cc1-c1ccc(C(=O)NCC2CCC2)cn1
6,< 10,Cc1csc(CCNC(=O)c2ccc(-c3cc(C(=O)NC4CC4)cc(F)c3C)nc2)n1
7,< 10,Cc1c(F)cc(C(=O)NC2CC2)cc1-c1ccc(C(=O)NCc2nccs2)cn1
8,< 10,Cc1c(F)cc(C(=O)NC2CC2)cc1-c1ccc(C(=O)NC2CCCC2)cn1
9,< 10,Cc1c(F)cc(C(=O)NC2CC2)cc1-c1ccc(C(=O)NCCc2ccccc2)cn1
10,< 10,COC(C)(C)CNC(=O)c1ccc(-c2cc(C(=O)NC3CC3)cc(F)c2C)nc1
11,< 10,Cc1c(F)cc(C(=O)NC2CC2)cc1-c1ccc(C(=O)NCCOC(C)(C)C)cn1
12,< 10,Cc1c(F)cc(C(=O)NC2CC2)cc1-c1ccc(C(=O)NC2CC2(C)C)cn1 (stereo not given)
13,< 10,Cc1c(F)cc(C(=O)NC2CC2)cc1-c1ccc(C(=O)NC(C)CC(C)C)cn1 (stereo not given)
14,< 10,Cc1c(F)cc(C(=O)NC2CC2)cc1-c1ccc(C(=O)NCc2ccc(F)cc2)cn1
15,< 10,Cc1c(F)cc(C(=O)NC2CC2)cc1-c1ccc(C(=O)NCCc2nccs2)cn1
16,< 10,CCCC(O)C(C)(C)NC(=O)c1ccc(-c2cc(C(=O)NC3CC3)cc(F)c2C)nc1 (stereo not given)
17,< 10,Cc1c(F)cc(C(=O)NC2CC2)cc1-c1ccc(C(=O)NCc2cc(Cl)ccc2F)cn1
18,< 10,CCC1CC1CNC(=O)c1ccc(-c2cc(C(=O)NC3CC3)cc(F)c2C)nc1 (stereo not given)
19,< 10,CCC(C)NC(=O)c1ccc(-c2cc(C(=O)NC3CC3)cc(F)c2C)nc1 (stereo not given)

row,IC50 [µM],Structure (SMILES)
1,< 10,COCCNC(=O)c1ccc(-c2cc(C(=O)NC3CC3)cc(F)c2C)nc1
2,< 10,Cc1c(F)cc(C(=O)NC2CC2)cc1-c1ccc(C(=O)NC2CC2)cn1
3,< 10,CCC(C)(CC)NC(=O)c1ccc(-c2cc(C(=O)NC3CC3)cc(F)c2C)nc1
4,< 10,CCNC(=O)c1ccc(-c2cc(C(=O)NC3CC3)cc(F)c2C)nc1
5,< 10,Cc1c(F)cc(C(=O)NC2CC2)cc1-c1ccc(C(=O)NCc2cccc(Cl)c2F)cn1
6,< 10,Cc1c(F)cc(C(=O)NC2CC2)cc1-c1ccc(C(=O)NCc2cccc(F)c2F)cn1
7,< 10,Cc1c(F)cc(C(=O)NC2CC2)cc1-c1ccc(C(=O)NCc2ccccc2Cl)cn1
8,< 10,Cc1c(F)cc(C(=O)NC2CC2)cc1-c1ccc(C(=O)N(C)CC(C)C)cn1
9,< 10,Cc1c(F)cc(C(=O)NC2CC2)cc1-c1ccc(C(=O)NC(C)C2CC2)cn1 (stereo not given)
10,< 10,Cc1c(F)cc(C(=O)NC2CC2)cc1-c1ccc(C(=O)NCCC(C)(C)C)cn1
11,< 10,CCCC(C)NC(=O)c1ccc(-c2cc(C(=O)NC3CC3)cc(F)c2C)nc1 (stereo not given)
12,< 10,CCN(C(=O)c1ccc(-c2cc(C(=O)NC3CC3)cc(F)c2C)nc1)C(C)C
13,< 10,Cc1cccc(CNC(=O)c2ccc(-c3cc(C(=O)NC4CC4)cc(F)c3C)nc2)c1
14,< 10,Cc1c(F)cc(C(=O)NC2CC2)cc1-c1ccc(C(=O)NCC2CCCCC2)cn1
15,< 10,CCC(C)(C)NC(=O)c1ccc(-c2cc(C(=O)NC3CC3)cc(F)c2C)nc1
16,< 10,Cc1c(F)cc(C(=O)NC2CC2)cc1-c1ccc(C(=O)NCc2cccc(F)c2)cn1
17,< 10,Cc1ccsc1CNC(=O)c1ccc(-c2cc(C(=O)NC3CC3)cc(F)c2C)nc1
18,< 10,Cc1c(F)cc(C(=O)NC2CC2)cc1-c1ccc(C(=O)NCC(C)C(F)(F)F)cn1 (stereo not given)
19,< 10,Cc1csc(CNC(=O)c2ccc(-c3cc(C(=O)NC4CC4)cc(F)c3C)nc2)n1

# Second part, the molecule before the results:
row,Structure (SMILES),IC50 [µM]
1,Cc1ccc(C(=O)NC2CC2)cc1-c1ccc(C(=O)NCc2cccc(NS(C)(=O)=O)c2)cn1,< 10
2,Cc1ccc(NC(=O)c2ccoc2)cc1-c1ccc(C(=O)NCC2CC2)cn1,< 10
3,Cc1c(F)cc(C(=O)NC2CC2)cc1-c1ccc(C(=O)NCc2cccc(C(F)(F)F)c2)cn1,< 10
4,Cc1ccc(C(=O)Nc2nncs2)cc1-c1ccc(C(=O)NCC2CC2)cn1,< 10
5,CCC1CCCCN1C(=O)c1ccc(-c2cc(C(=O)NC3CC3)cc(F)c2C)nc1 (stereo not given),< 10
6,Cc1c(F)cc(C(=O)NC2CC2)cc1-c1ccc(C(=O)NCc2c(F)ccc(Cl)c2F)cn1,< 10
7,Cc1c(F)cc(C(=O)NC2CC2)cc1-c1ccc(C(=O)N2CCCC(C)(C)C2)cn1,< 10
8,Cc1c(F)cc(C(=O)NC2CC2)cc1-c1ccc(C(=O)NCc2ccc(Cl)cc2F)cn1,< 10
9,COc1cccc(CNC(=O)c2ccc(-c3cc(C(=O)NC4CC4)ccc3C)nc2)c1,< 10
10,Cc1c(F)cc(C(=O)NC2CC2)cc1-c1ccc(C(=O)NCc2ccc(C(F)(F)F)cc2)cn1,< 10
11,CCCC1CCCCN1C(=O)c1ccc(-c2cc(C(=O)NC3CC3)cc(F)c2C)nc1 (stereo not given),< 10
12,Cc1ccc(NC(=O)c2ccsc2)cc1-c1ccc(C(=O)NCc2cccc(NS(C)(=O)=O)c2)cn1,< 10
13,Cc1c(F)cc(C(=O)NC2CC2)cc1-c1ccc(C(=O)NCc2cc(F)c(F)cc2F)cn1,< 10
14,Cc1c(F)cc(C(=O)NC2CC2)cc1-c1ccc(C(=O)NCc2ccc(F)c(F)c2)cn1,< 10
15,Cc1c(F)cc(C(=O)NC2CC2)cc1-c1ccc(C(=O)NCC(F)c2ccccc2)cn1 (stereo not given),< 10
16,Cc1ccc(NC(=O)c2ccoc2)cc1-c1ccc(C(=O)Nc2ccccc2CN2CCN(C)CC2)cn1,< 10
17,COc1ccc(NC(=O)c2ccc(-c3cc(C(=O)NC4CC4)ccc3C)nc2)cc1,< 10
18,Cc1c(F)cc(C(=O)NC2CC2)cc1-c1ccc(C(=O)NCc2cc(F)c(F)c(F)c2)cn1,< 10
19,Cc1c(F)cc(C(=O)NC2CC2)cc1-c1ccc(C(=O)N(C)C2(C)CCCC2)cn1,< 10
20,Cc1ccc(C(=O)NC2CC2)cc1-c1ccc(C(=O)Nc2ccccc2CN2CCN(C)CC2)cn1,< 10
21,CCC1(C)CCCCN1C(=O)c1ccc(-c2cc(C(=O)NC3CC3)cc(F)c2C)nc1 (stereo not given),< 10

row,Structure (SMILES),IC50 [µM]
1,Cc1ccc(C(=O)Nc2nccs2)cc1-c1ccc(C(=O)NCC2CC2)cn1,< 10
2,Cc1c(F)cc(C(=O)NC2CC2)cc1-c1ccc(C(=O)NC(C)Cc2nccs2)cn1 (stereo not given),< 10
3,Cc1ccc(C(=O)NCC2CC2)cc1-c1ccc(C(=O)NCC2CC2)cn1,< 10
4,COc1cccc(NC(=O)c2ccc(-c3cc(C(=O)NC4CC4)cc(F)c3C)nc2)c1,< 10
5,Cc1cccc(NC(=O)c2ccc(-c3cc(C(=O)NC4CC4)cc(F)c3C)nc2)c1,< 10
6,Cc1c(F)cc(C(=O)NC2CC2)cc1-c1ccc(C(=O)N2CCC(C)C2(C)C)cn1 (stereo not given),< 10
7,COc1cccc(CNC(=O)c2ccc(-c3cc(NC(=O)c4ccsc4)ccc3C)nc2)c1,< 10
8,Cc1ccc(C(=O)Nc2nncs2)cc1-c1ccc(C(=O)NCc2cccc(NS(C)(=O)=O)c2)cn1,< 10
9,COc1cccc(CNC(=O)c2ccc(-c3cc(C(=O)NCC4CC4)ccc3C)nc2)c1,< 10
10,Cc1ccc(C(=O)Nc2nccs2)cc1-c1ccc(C(=O)NCc2cccc(NS(C)(=O)=O)c2)cn1,< 10
11,Cc1c(F)cc(C(=O)NC2CC2)cc1-c1ccc(C(=O)NCc2c(F)ccc(F)c2Cl)cn1,< 10
12,Cc1ccc(C(=O)NCC2CC2)cc1-c1ccc(C(=O)NCc2cccc(NS(C)(=O)=O)c2)cn1,< 10
13,COc1ccc(NC(=O)c2ccc(-c3cc(C(=O)NCC4CC4)ccc3C)nc2)cc1,< 10
14,Cc1c(F)cc(C(=O)NC2CC2)cc1-c1ccc(C(=O)N2CCCC(C)C2C)cn1 (stereo not given),< 10
15,Cc1c(F)cc(C(=O)NC2CC2)cc1-c1ccc(C(=O)N(C)C2CCCC2)cn1,< 10
16,Cc1ccc(C(=O)NCC2CC2)cc1-c1ccc(C(=O)Nc2ccccc2CN2CCN(C)CC2)cn1,< 10
17,Cc1ccc(NC(=O)c2ccsc2)cc1-c1ccc(C(=O)NCC2CC2)cn1,< 10
18,Cc1ccc(C(=O)Nc2cccc(-c3ccccn3)c2)cc1-c1ccc(C(=O)NCC2CC2)cn1,< 10
19,Cc1c(F)cc(C(=O)NC2CC2)cc1-c1ccc(C(=O)NCc2ccc(F)c(F)c2F)cn1,< 10
20,Cc1ccc(NC(=O)c2ccoc2)cc1-c1ccc(C(=O)NCc2cccc(NS(C)(=O)=O)c2)cn1,< 10
21,Cc1ccc(NC(=O)c2ccnc(N3CCCC3)c2)cc1-c1ccc(C(=O)NCC2CC2)cn1,< 10
